According to PMC10747602, “Dose Response, Dosimetric, and Metabolic Evaluations of Replacement PFAS Perfluoro-(2,5,8-trimethyl-3,6,9-trioxadodecanoic) Acid (HFPO-TeA)” (Toxics, 2023):
Where two headings read alike, the source gives them in different places.

Experiment: Liver HFPO-TeA dosimetry
Type: in vivo, Sprague Dawley rats
Settings: for 5D Liver Conc.: 5 days of exposure, mean ± SD n=4; for concentration at 5 days: Sprague Dawley, rat, liver, oral, wet weight, individual rats, read-out: Liver Conc.
Method: Whole blood was collected from the retro-orbital plexus under isoflurane anesthesia 2 h following the first dose and by cardiac puncture 24 h after the last dosage. Blood was stored in anticoagulant potassium ethylenediaminetetraacetic acid (K3EDTA)-coated vacutainers, and then processed to isolate plasma via centrifugation. Animals were euthanized via carbon dioxide asphyxiation and subsequent exsanguination. Liver was collected, weighed, cubed, and divided into three aliquots. One aliquot of tissue was flash-frozen in liquid nitrogen and stored at −80 °C for analytical chemistry analyses. The remaining two aliquots were placed in RNALater and frozen for use in the companion transcriptomic study. Liver and plasma samples were received at the U.S. EPA Center for Computational Toxicology and Exposure, Advanced Analytical Chemistry Methods Branch in Research Triangle Park, North Carolina, USA, and stored at −80 °C prior to extraction.
Information on the chemicals and materials used in the liver plasma HFPO-TeA dosimetry work can be found in Supplementary Text S6 and Table S3. Liver sample preparation was modified from Conley et al.’s work and detailed in Supplementary Text S6 [49]. Briefly, samples were spiked with the internal standard PFHxDA then homogenized in 200 µL of ACN containing 0.1% formic acid. The sample was centrifuged, and the supernatant was transferred. This process was repeated twice more, then stored at −20 °C prior to analysis.
Liver samples were analyzed using the same analytical assessment procedure as the plasma dosimetry samples. Matrix blanks were analyzed with each sample set. HFPO-TeA was not detected in the blanks above the limit of quantitation (LOQ) of 1.58 µM. Statistical analysis is described in Supplementary Text S3, normalization calculations are described in Supplementary Text S5 [47], and the liver-to-plasma partitioning calculation is outlined in Supplementary Text S7 [32, 50, 51].
All in vivo results values are reported as mean ± one standard deviation (SD). Statistical evaluation of in vivo data was conducted using a two-way analysis of variance (ANOVA) and Dunnett’s Test, both at α = 0.05 significance level, on GraphPad Prism v9.5.1.
Support ing Text S4: Plasma Dosimetry Chemicals, Materials, and Analysis Sprague Dawley rodent plasma (pooled, mixed sex) collected with ethylenediaminetetraacetic acid (EDTA) and sterile filtered (0.2 µm) was obtained from BioIVT (Westbury, NY, USA) and stored at -80 °C until use as the control matrix for generating calibration curves and as the matrix blank during plasma sample analysis. The HFPO-TeA (98.97% pure) used for calibration curve preparation was obtained from Oakwood Products Inc. (West Columbia, South Carolina, USA). Unlabeled perfluorohexadecanoic acid (CASRN 67905-19-5 | DTXSID1070800 | PFHxDA; ≥ 98% pure) was obtained from Cambridge Isotope Laboratories (Tewksbury, MA, USA) to serve as the internal standard since a labeled HFPO-TeA standard was not commercially available. […]
Samples were quantitated against matrix-matched calibration curves containing a minimum of 5 points spanning the range 20 – 80,280 ng/mL plasma. Calibrants were prepared by spiking commercial rat plasma (BioIVT) with HFPO-TeA and PFHxDA and then extracted in the same manner as study samples.
Support ing Text S5: Normalization of Dosimetry Data Calculations
Percent dose of HFPO-TeA in plasma was calculated using the observed plasma concentrations and the average plasma volume for Sprague Dawley rats. The density of plasma was then used to convert from mL plasma to grams plasma for ease of comparison to the liver percent dose data. Average percent dose of HFPO-TeA in liver was calculated using the observed liver concentrations and liver weights. These calculations allow for a comparison of the potential saturation of available proteins in […]
Support ing Text S6: Liver Dosimetry Chemicals, Materials, and Analysis […]

O=C(O)C(F)(OC(F)(F)C(F)(OC(F)(F)C(F)(OC(F)(F)C(F)(F)C(F)(F)F)C(F)(F)F)C(F)(F)F)C(F)(F)F (stereo not shown) [HFPO-TeA, perfluoro-(2,5,8-trimethyl-3,6,9-trioxadodecanoic) acid]
5D Liver Conc. (0.9 mg/kg/day, F): 14.0 ± 4.3 µM
5D Liver Conc. (2.3 mg/kg/day, F): 16.5 ± 12.6 µM
5D Liver Conc. (2.3 mg/kg/day, M): 10.3 ± 7.5 µM
5D Liver Conc. (6.3 mg/kg/day, F): 86.8 ± 31.7 µM
5D Liver Conc. (6.3 mg/kg/day, M): 82.7 ± 10.5 µM
5D Liver Conc. (17 mg/kg/day, F): 250 ± 39 µM
5D Liver Conc. (17 mg/kg/day, M): 210 ± 85 µM
concentration at 5 days (female, 0.9 mg/kg/day, F): 9240 ng/g
concentration at 5 days (female, 17 mg/kg/day, F): 174000 ng/g
concentration at 5 days (male, 6.3 mg/kg/day, M): 61600 ng/g
